Laboratory results taken from paper PMC6921030, “Biochemical Characterization of a Novel α/β-Hydrolase/FSH from the White Shrimp Litopenaeus vannamei” (Biomolecules, 2019).

Target: T1, LvFSH (LvFHS) (Penaeus vannamei, UniProt A0A3R7MXL5)
T1 construct: gene C7M84_009540; synthetic codon-optimised gene of LvFSH coding region, N-terminal 10-His tag (cutting not mentioned), pJexpress414, E. coli BL21DE3-SI; about 27 kDa on SDS-PAGE, about 58 kDa by gel filtration (probable dimer); catalytic triad Ser111/Asp169/His196 proposed; C-terminal motif KMRELC 214-219
Assay: spectrophotometric p-nitrophenol release at […] nm, non-linear Michaelis-Menten fit
Format: biochemical
Conditions: 50 mM Tris-HCl pH 8.0, 37 °C, 0.2% (v/v) Triton X-100, 50 mM NaCl; substrate 0.05-2 mM in ethanol

T1 sequence (A0A3R7MXL5 entry or part of it): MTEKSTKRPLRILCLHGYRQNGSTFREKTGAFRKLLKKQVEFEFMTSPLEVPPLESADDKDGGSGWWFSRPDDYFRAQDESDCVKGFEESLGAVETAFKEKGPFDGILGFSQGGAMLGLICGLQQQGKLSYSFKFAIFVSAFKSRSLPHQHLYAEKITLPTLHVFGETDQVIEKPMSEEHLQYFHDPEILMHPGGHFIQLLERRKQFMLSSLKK

Km: 1000 ± 40 µM
SMILES: CC(=O)Oc1ccc([N+](=O)[O-])cc1 [p-nitrophenyl acetate]
